We go through 61 compounds from BindingDB's records for doi:10.7270/Q2QF8R8B (Pcmd, 2008).

This experiment has as its target T1, Cathepsin G (Homo sapiens, UniProt P08311).
T1 sequence (P08311 whole entry): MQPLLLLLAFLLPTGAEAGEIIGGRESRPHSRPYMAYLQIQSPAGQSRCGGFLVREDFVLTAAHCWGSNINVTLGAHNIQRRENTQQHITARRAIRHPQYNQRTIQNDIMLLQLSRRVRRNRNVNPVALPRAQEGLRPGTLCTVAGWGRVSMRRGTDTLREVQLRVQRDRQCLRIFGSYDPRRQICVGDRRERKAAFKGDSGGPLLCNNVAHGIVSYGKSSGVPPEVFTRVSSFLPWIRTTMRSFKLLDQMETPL
Kind of experiment: IC50 of CTSG protease blockers – biochemical, confirmation, dose response (AID 832).
In general, IC50 refers to the concentration at which inhibition is half-maximal. High values mean weaker potency, low ones greater potency. As to `O=C(c1ccc2c(c1)OCO2)n1nnc2ccccc21`, the IC50 stood at 0.957 µM.

As to `C#CCOC(=O)c1ccccc1C(=O)n1nnc2ccccc21`, the IC50 turned out to be 3.97 µM.

`O=c1oc(-c2cccnc2)nc2ccccc12` [2-(3-pyridinyl)-3,1-benzoxazin-4-one] returned an IC50 of 2.77 µM.

Turning to `Cc1ccccc1CS(=O)(=O)c1nnc([C@H](CC(C)C)NC(=O)OC(C)(C)C)o1` [SMR000044673], inhibition was half-maximal at 22.6 µM (IC50).

In turn, `COc1ccc(C2C(C(=O)c3cccs3)C(=O)C(=O)N2c2nncs2)cc1` (stereo unspecified) displayed an IC50 of over 50 µM.

`Cc1ccccc1Cn1nc(C)c(NC(=O)c2noc3c2CCc2ccccc2-3)c1C` [MLS000116424]: the IC50 was found to be 6.45 µM.

`COc1ccc2c(c1)CCc1c(C(=O)Nc3ccc(OC)c(OC)c3)noc1-2` [MLS000087452] gave an IC50 of 14.5 µM.

With `COc1ccc(C(=O)n2nc(-c3ccc(C)cc3)nc2N)cc1OC`, the IC50 is over 50 µM.

The compound `COc1ccc(C(=O)n2nc(-c3ccc(Cl)cc3)nc2N)cc1OC` [SMR000074176] returned an IC50 of 32.2 µM.

`Cc1cccc(-n2nnc(C(=O)Nc3ccc(F)cc3)c2N)c1` [5-amino-N-(4-fluorophenyl)-1-(3-methylphenyl)-1H-1,2,3-triazole-4-carboxamide]: the half-maximal inhibitory concentration (IC50) was over 50 µM.

`Cc1nn(C(=O)c2ccccc2)c2c1C(=O)CC(C)(C)C2` [SMR000069174] registered an IC50 of 10.8 µM.

In the case of `COc1ccc2c(c1)CCc1c(C(=O)Nc3ccn(Cc4ccc(C)cc4)n3)noc1-2` [7-methoxy-N-[1-(4-methylbenzyl)-1H-pyrazol-3-yl]-4,5-dihydronaphtho[2,1-d]isoxazole-3-carboxamide], the IC50 came out at 2.91 µM.

In turn, `CCOC(=O)c1ccc(NC(=O)CS(=O)(=O)c2cn(CC)c3ccccc23)cc1` [4-[[2-(1-ethylindol-3-yl)sulfonylacetyl]amino]benzoic acid ethyl ester] registered a half-inhibitory concentration (IC50) of over 50 µM.

Compound `COc1cc(NC(=O)c2csc3c2CCCC3)ncn1` [MLS000093387] returned an IC50 of over 50 µM.

Compound `CN1CC2(Cc3c1ccc1ccccc31)C(=O)OC(C)(C)OC2=O` [2',2',4-trimethylspiro[1,3-dihydrobenzo[f]quinoline-2,5'-1,3-dioxane]-4',6'-dione] had an IC50 of 23.3 µM.

In turn, `COc1ccc2c(c1)CCc1c(C(=O)NCCN3CCOCC3)noc1-2` [7-methoxy-N-(2-morpholin-4-ylethyl)-4,5-dihydrobenzo[g][1,2]benzoxazole-3-carboxamide] displayed an IC50 of 5.82 µM.

As for `CSc1nc(-c2ccco2)nn1C(=O)c1ccco1` [2-furanyl-[3-(2-furanyl)-5-(methylthio)-1,2,4-triazol-1-yl]methanone], 11.7 µM corresponded to half-maximal inhibition (IC50).

Take `COc1cccc(-c2cc(C(=O)NCCc3ccccc3)no2)c1` [5-(3-methoxyphenyl)-N-(2-phenylethyl)-1,2-oxazole-3-carboxamide]: the concentration for half-maximal inhibition (IC50) is over 50 µM.

The compound `Cc1cc(NC(=O)c2noc3c2CCc2ccccc2-3)n(-c2ccccc2)n1` [MLS000116423] had an IC50 of over 50 µM.

In turn, `COc1ccc(OC)c(-c2cc(C(=O)Nc3c(C)nn(Cc4ccccc4)c3C)no2)c1` [5-(2,5-dimethoxyphenyl)-N-[3,5-dimethyl-1-(phenylmethyl)-4-pyrazolyl]-3-isoxazolecarboxamide] yielded an IC50 of 33 µM.

In turn, `CCOC(=O)c1ccc(/N=C/c2nc(-c3ccccc3)oc2OC(C)=O)cc1` [MLS000027596] returned an IC50 of 21.6 µM.

`COC(=O)c1ccccc1NC(=O)c1cc2sccc2n1C` [2-[(4-Methyl-4H-thieno[3,2-b]pyrrole-5-carbonyl)-amino]-benzoic acid methyl ester] came in with a 50% inhibitory concentration (IC50) of 30.4 µM.

`CSc1nc(-c2ccco2)nn1C(=O)c1cccs1` [[3-(furan-2-yl)-5-methylsulfanyl-1,2,4-triazol-1-yl]-thiophen-2-ylmethanone] had an IC50 of 1.78 µM.

`COc1ccc(S(=O)(=O)n2nc(OC(=O)c3ccccc3)cc2N)cc1` [Benzoic acid 5-amino-1-(4-methoxy-benzenesulfonyl)-1H-pyrazol-3-yl ester] displayed an IC50 of 20.8 µM.

`COc1ccccc1-c1cc(C(=O)NCc2ccccc2)no1` [5-(2-methoxyphenyl)-N-(phenylmethyl)-1,2-oxazole-3-carboxamide]: it took 13.3 µM to reach half-maximal inhibition (IC50).

Turning to `Cc1nc2scc(-c3cccs3)c2c(=O)o1` [2-methyl-5-(2-thienyl)thieno[2,3-d][1,3]oxazin-4-one], the IC50 was over 50 µM.

Turning to `O=C(CCSc1nccn1Cc1ccccc1)N1CCOCC1` [1-(4-morpholinyl)-3-[[1-(phenylmethyl)-2-imidazolyl]thio]-1-propanone], the IC50 is over 50 µM.

In the case of `COc1ccccc1/N=C/c1nc(-c2ccccc2)oc1OC(C)=O` [SMR000039734], the half-inhibitory concentration (IC50) amounted to 37.9 µM.

Compound `CC[C@@H](C)[C@H](NC(=O)OC(C)(C)C)c1nnc(S(=O)(=O)Cc2cc(C)ccc2C)o1` [MLS000042033] registered a 50% inhibitory concentration (IC50) of 20.2 µM.

Regarding `Cc1cc(NC(=O)c2noc3c2CCc2ccccc2-3)no1` [MLS000116422], it took 4.25 µM to reach half-maximal inhibition (IC50).

In turn, `CSc1nc(-c2ccco2)nn1C(=O)c1ccc(C)cc1` [[3-(furan-2-yl)-5-methylsulfanyl-1,2,4-triazol-1-yl]-(4-methylphenyl)methanone] registered a half-inhibitory concentration (IC50) of 1.02 µM.

`COc1ccc(S(=O)(=O)n2nc(OC(=O)c3cccs3)cc2N)cc1` [2-thiophenecarboxylic acid [5-amino-1-(4-methoxyphenyl)sulfonyl-3-pyrazolyl] ester] displayed an IC50 of 2.52 µM.

`O=C(c1noc2c1CCc1ccccc1-2)N1CCOCC1` [3-(morpholin-4-ylcarbonyl)-4,5-dihydronaphtho[2,1-d]isoxazole] had an IC50 of over 50 µM.

Compound `O=C1CCCC(=O)C1=CNCCc1ccccc1` [MLS000108318] returned an IC50 of over 50 µM.

In the case of `COc1ccc(-c2cc(C(=O)NCc3ccc(Cl)cc3)no2)cc1OC` [MLS000087122], the IC50 stood at 43.2 µM.

As to `COc1ccc(CNC(=O)c2cc(-c3ccc(OC)c(OC)c3)on2)cc1` [5-(3,4-dimethoxyphenyl)-N-(4-methoxybenzyl)isoxazole-3-carboxamide], the IC50 is over 50 µM.

As to `Cc1nn(Cc2ccc(Cl)c(Cl)c2)c(C)c1NC(=O)c1cc(-c2ccc3c(c2)OCO3)on1` [5-(1,3-benzodioxol-5-yl)-N-[1-(3,4-dichlorobenzyl)-3,5-dimethyl-1H-pyrazol-4-yl]isoxazole-3-carboxamide], the 50% inhibitory concentration (IC50) is 18.6 µM.

In turn, `CC(C)(C)OC(=O)N[C@@H](Cc1ccccc1)c1nnc(S(=O)(=O)Cc2ccccc2)o1` [SMR000047857] displayed a concentration for half-maximal inhibition (IC50) of 1.95 µM.

`COc1ccc2c(c1)CCc1c(C(=O)NCCCn3ccnc3)noc1-2` [MLS000087439] returned a concentration for half-maximal inhibition (IC50) of 4.13 µM.

Compound `COc1ccc2c(c1)CCc1c(C(=O)NCc3ccc(F)cc3)noc1-2` [MLS000116425] gave an IC50 of 2.52 µM.

As for `COc1cc2nc(-c3cccs3)oc(=O)c2cc1OC` [6,7-dimethoxy-2-(2-thienyl)-3,1-benzoxazin-4-one], the half-maximal inhibitory concentration (IC50) is over 50 µM.

With `CCC(=O)Nc1cccc(-c2nc3ccccc3c(=O)o2)c1` [MLS000090237], the IC50 came to 3.43 µM.

The compound `COc1ccccc1-c1cc(C(=O)Nc2cccnc2)no1` [5-(2-methoxyphenyl)-N-(3-pyridinyl)-3-isoxazolecarboxamide] came in with an IC50 of 43.2 µM.

The compound `CCCC(=O)Nc1ccc(C(=O)n2nnc3ccccc32)cc1` [N-[4-(1H-1,2,3-benzotriazol-1-ylcarbonyl)phenyl]butanamide] came in with an IC50 of 0.923 µM.

As for `O=C(NCCCn1ccnc1)c1noc2c1CCc1ccccc1-2` [N-[3-(1-imidazolyl)propyl]-4,5-dihydrobenzo[g][1,2]benzoxazole-3-carboxamide], half-maximal inhibition (IC50) was put at 3.73 µM.

`CC(=O)Nc1cccc(-c2nc3ccccc3c(=O)o2)c1` [MLS000061720] yielded an IC50 of 2.17 µM.

In the case of `Cc1cc(OC(=O)c2ccccc2)n(CCC#N)n1` [[2-(2-cyanoethyl)-5-methyl-pyrazol-3-yl] benzoate], the half-inhibitory concentration (IC50) turned out to be 2.26 µM.

In turn, `O=C(c1noc2c1CCc1ccccc1-2)N1CCCc2ccccc21` [3-(3,4-dihydroquinolin-1(2H)-ylcarbonyl)-4,5-dihydronaphtho[2,1-d]isoxazole] gave a half-inhibitory concentration (IC50) of 47.6 µM.

Compound `O=c1oc(-c2ccco2)nc2ccccc12` [2-Furan-2-yl-benzo[d][1,3]oxazin-4-one] registered a concentration for half-maximal inhibition (IC50) of 0.793 µM.

The compound `CCCNC(=O)c1noc2c1CCc1ccccc1-2` [MLS000116420] returned an IC50 of 2.55 µM.

As for `CCSc1ccccc1C(=O)n1nnc2ccccc21`, half-maximal inhibition (IC50) required 9.8 µM.

In turn, `CC(C)C(CC(=O)N1CCCCC1)C1CCOC(C)(C)C1` (stereo unspecified) [3-(2,2-dimethyl-4-oxanyl)-4-methyl-1-(1-piperidinyl)-1-pentanone] yielded an IC50 of over 50 µM.

`CCN1C(=O)c2ccc(-c3nc4ccccc4c(=O)o3)cc2C1=O` [2-ethyl-5-(4-keto-3,1-benzoxazin-2-yl)isoindoline-1,3-quinone] yielded an IC50 of over 50 µM.

`Cc1ccc(S(=O)(=O)n2nc(OC(=O)c3cccs3)cc2N)cc1` gave an IC50 of 8.07 µM.

`COc1ccc(C(=O)n2nc(-c3ccccc3)nc2N)cc1OC` [MLS000099650] came in with a half-inhibitory concentration (IC50) of 4.43 µM.

`O=C(c1csc2ccccc12)n1cccn1` [MLS000065687] came in with an IC50 of 4.33 µM.

Regarding `CCOC(=O)c1c(C)n(C(=O)c2ccco2)c(=O)n1C(=O)c1ccco1`, the IC50 worked out at 12 µM.

Compound `COc1ccc2c(c1)CCc1c(C(=O)N3CCc4ccccc4C3)noc1-2` [3,4-dihydro-1H-isoquinolin-2-yl-(7-methoxy-4,5-dihydrobenz[g]indoxazen-3-yl)methanone] returned an IC50 of over 50 µM.

For `COc1ccc2c(c1)CCc1c(C(=O)NC3CCCCC3)noc1-2` [MLS000087437], the 50% inhibitory concentration (IC50) turned out to be 0.631 µM.

`COc1ccccc1-c1cc(C(=O)NC(C)c2ccccc2)no1` (stereo unspecified) [5-(2-methoxyphenyl)-N-(1-phenylethyl)-1,2-oxazole-3-carboxamide] returned an IC50 of 21.8 µM.

Consider `COCC(C)NC(=O)c1noc2c1CCc1cc(OC)ccc1-2` (stereo unspecified) [7-methoxy-N-(1-methoxypropan-2-yl)-4,5-dihydrobenzo[g][1,2]benzoxazole-3-carboxamide], for which half-maximal inhibition (IC50) was put at 6.4 µM.
